From patent US10568884B2, “Compounds and compositions as protein kinase inhibitors” (Array BioPharma, Inc., priority 2009, dated 2020)
pIC50: −log10 of the molar value. Read-outs that look alike come from different tables or passages of the source.

What was measured:
[1] = system: A375 melanoma cell line (B-Raf V600E); assay: A375 Cellular Proliferation Assay (A375 CP); format: cell-based; conditions: Homo sapiens
Method: A375-luc cells engineered to express luciferase are plated to 384-well white clear bottom plates as 1,500 cells/50 μl/well in DMEM containing 10% FBS. Compounds of the invention dissolved in 100% DMSO at appropriate concentrations are transferred to the cells by a robotic Pin Tool (100 nl). The cells are incubated for 2 days at […], then 25 μl of BrightGlo™ is added to each well and the plates are read by luminescence.

[2] = Liver Microsomal Clearance Assay (human); format: in vitro ADME; conditions: extraction ratio, human liver microsomes, 1 μM compound
Method: (§1) The in vitro microsomal clearance assay is designed to assess potential risks associated with hepatic metabolic stability of compounds. The test compound (1 μM) was incubated with liver microsomes (0.5 mg/mL) from different species (mouse, rat, monkey, dog and human) and NADPH (1 mM) in 100 mM potassium phosphate buffer at 37° C. At specific reaction time points (0, 5, 10 and 30 minutes), reaction aliquots were removed and reactions were terminated by addition of ice cold acetonitrile containing mass spectrometry internal standard. The samples were centrifuged and the supernatants were analyzed by LC-MS/MS. In vitro metabolic half-life (t1/2, min) and intrinsic clearance (CLint, μL/min/mg) are based on the rate and extent of metabolism of the test compound as determined by the disappearance of the parent compound from the reaction mixture. These values may be scaled to predict hepatic metabolic clearance rate (CLh, mL/min/kg) and extraction ratio (ER, expressed as a ratio of the predicted hepatic metabolic clearance to hepatic blood flow in that species). In general, compounds with high predictedCLint or ER in vitro are considered to be at high risk for exposure-limiting metabolism in vivo.

[3] = Liver Microsomal Clearance Assay (mouse); format: in vitro ADME; conditions: extraction ratio, mouse liver microsomes, 1 μM compound
Method: as §1

SW620 cells = assay: SW620 Cell Viability Assay (Cell Titer Glo); format: cell-based; conditions: 10 to 0.002 μM, no MEK inhibitor
Method: The present invention also includes combinations of the BRaf inhibitors disclosed in this invention with other agents. In particular, the present invention provides for combinations with MEK1/2 inhibitors. FIG. 1 illustrates that the addition of a MEK small molecule inhibitor can reverse the induced ERK signaling, cell growth and transformation caused by a Raf small molecule inhibitor.
SW620 cells were seeded in 1640 RPMI+10% FBS at a density of 1500 cells per 96-well in black walled, clear bottom tissue culture treated plates. Test compounds were serially diluted in DMSO then added to the cells (final DMSO concentration of 0.1%) and incubated at 37° C. and 5% CO2 for 4 days. To measure cell viability, cell plates were brought to room temperature, culture media was removed, and 200 μl of Cell Titer-Glo reagent (Promega, kit components mixed as per the manufacturer's protocol then diluted 1:2 with growth media) was added to each well. Plates were shaken for 5 minutes, then incubated at room temperature for 5 minutes, and the luminescence was measured (Trilux, Perkin Elmer).

p38α MAP Kinase = assay: A549 p38α MAP Kinase Bright-Glo Reporter Gene Assay; format: cell-based; conditions: Homo sapiens, IL-1 beta stimulated, IL-8 promoter luciferase reporter, read-out: A549 p38 RGA IC50
Method: A549 cells were stably-transfected with the IL-8 promoter driven reporter, pGL3-IL8-Luc. The cells were plated at 4×10^5/ml into 384-well solid white plates (40 ul/well, 5% CD-FBS, 1×P/S, DMEM) and were incubated overnight (18-20 hours) at 37° C. Test compounds were serially diluted in DMSO, then 50 nl of test solution was added to the incubation (final DMSO concentration of 0.1%). After incubating with test compound for 30 min, cells were stimulated with 1 ng/ml IL-1 beta (10 ul of 5 ng/ml solution per well). Bright-Glo (25 ul/well) was added to measure luciferase expression after 7-8 hours of stimulation.

[4] = A-375, 48 h, A375-luc cells, 2 days, read-out: A375 CP IC50
[5] = A-375, as repeated in p38 table, read-out: A375 CP IC50

**Q.** With `COC(=O)N[C@@H](C)CNc1nccc(-c2cn(C(C)C)nc2-c2cccc(NS(C)(=O)=O)c2F)n1` [Compound 4, methyl N-[(2S)-1-({4-[3-(2-fluoro-3-methanesulfonamidophenyl)-1-(propan-2-yl)-1H-pyrazol-4-yl]pyrimidin-2-yl}amino)propan-2-yl]carbamate] as the compound, how does the pIC50 [1, 4] read?
**A.** Its pIC50 is 7.48.

**Q.** What about the “ER Human” value [2] of the same compound?
**A.** Its value is <0.31.

**Q.** And the “ER Mouse” value [3]?
**A.** Its value is 0.40.

**Q.** With `CCCS(=O)(=O)Nc1ccc(F)c(-c2nn(C(C)C)cc2-c2ccnc(NC[C@H](C)NC(=O)OC)n2)c1F` [Compound 7, Methyl N-[(2S)-1-[(4-{3-[2,6-difluoro-3-(propane-1-sulfonamido)phenyl]-1-(propan-2-yl)-1H-pyrazol-4-yl}pyrimidin-2-yl)amino]propan-2-yl]carbamate] as the compound, how does the pIC50 [1, 4] read?
**A.** The pIC50 was 8.10.

**Q.** What about the “ER Human” value [2] of the same compound?
**A.** The value was 0.65.

**Q.** And the “ER Mouse” value [3]?
**A.** The value was 0.91.

**Q.** With `COC(=O)N[C@@H](C)CNc1nccc(-c2cn(C(C)C)nc2-c2cc(Cl)cc(NS(C)(=O)=O)c2F)n1` [Compound 9, Methyl N-[(2S)-1-({4-[3-(5-chloro-2-fluoro-3-methanesulfonamidophenyl)-1-(propan-2-yl)-1H-pyrazol-4-yl]pyrimidin-2-yl}amino)propan-2-yl]carbamate] as the compound, how does the pIC50 [1, 4] read?
**A.** Its pIC50 is 8.70.

**Q.** And the pIC50 [1, 5]?
**A.** Its pIC50 is 8.70.

**Q.** What about the pIC50 ([1]; A-375, read-out: A375 IC50) of the same compound?
**A.** Its pIC50 is 8.70.

**Q.** What about the “ER Human” value [2] of the same compound?
**A.** Its value is <0.21.

**Q.** And the “effect on cellular proliferation (negative inhibition in FIG. 1)” value (SW620 cells)?
**A.** Its value is “induction in cellular proliferation”.

**Q.** What about the “ER Mouse” value [3] of the same compound?
**A.** The value was 0.48.

**Q.** What about the pIC50 (p38α MAP Kinase) of the same compound?
**A.** The pIC50 was 5.66.

**Q.** With `CNc1nccc(-c2cn(C(C)C)nc2-c2cc(Cl)cc(NS(C)(=O)=O)c2F)n1` [Compound 29, N-(5-chloro-2-fluoro-3-{4-[2-(methylamino)pyrimidin-4-yl]-1-(propan-2-yl)-1H-pyrazol-3-yl}phenyl)methanesulfonamide] as the compound, how does the pIC50 [1, 4] read?
**A.** Its pIC50 is 7.12.

**Q.** What about the pIC50 [1, 5] of the same compound?
**A.** The pIC50 was 7.12.

**Q.** What about the pIC50 ([1]; A-375, read-out: A375 IC50) of the same compound?
**A.** The pIC50 was 7.12.

**Q.** And the pIC50 (p38α MAP Kinase)?
**A.** The pIC50 was 4.77.

**Q.** Which results are given for `COC(=O)NC[C@H](C)Nc1nccc(-c2cn(C(C)C)nc2-c2cc(Cl)cc(NS(C)(=O)=O)c2F)n1` [Compound 32, Methyl N-[(2S)-2-({4-[3-(5-chloro-2-fluoro-3-methanesulfonamidophenyl)-1-(propan-2-yl)-1H-pyrazol-4-yl]pyrimidin-2-yl}amino)propyl]carbamate]?
**A.** pIC50 [1, 4]: 7.51; pIC50 [1, 5]: 7.51; pIC50 (p38α MAP Kinase): 6.16
